Data taken from ChEMBL document CHEMBL1909046, “DrugMatrix in vitro pharmacology data”.

Legend:
[1] = target: Sigma non-opioid intracellular receptor 1 (Homo sapiens, UniProt Q99720); test: DRUGMATRIX: Sigma1 radioligand binding (ligand: [3H] Haloperidol); type: cell membranes, Jurkat, Membrane; conditions: Not Active = under 50% inhibition at 10 µM
[2] = target: Tyrosine-protein kinase Lck (Homo sapiens, UniProt P06239); test: DRUGMATRIX: Protein Tyrosine Kinase, LCK enzyme inhibition (substrate: Poly(Glu:Tyr)); type: cell-based, Insect cells; conditions: Not Active = under 50% inhibition at 10 µM
[3] = target: T1, Androgen receptor (Rattus norvegicus, UniProt P15207); note: in other assays of this panel Not Active means under 50% inhibition at 10 µM
T1 sequence (P15207 whole entry): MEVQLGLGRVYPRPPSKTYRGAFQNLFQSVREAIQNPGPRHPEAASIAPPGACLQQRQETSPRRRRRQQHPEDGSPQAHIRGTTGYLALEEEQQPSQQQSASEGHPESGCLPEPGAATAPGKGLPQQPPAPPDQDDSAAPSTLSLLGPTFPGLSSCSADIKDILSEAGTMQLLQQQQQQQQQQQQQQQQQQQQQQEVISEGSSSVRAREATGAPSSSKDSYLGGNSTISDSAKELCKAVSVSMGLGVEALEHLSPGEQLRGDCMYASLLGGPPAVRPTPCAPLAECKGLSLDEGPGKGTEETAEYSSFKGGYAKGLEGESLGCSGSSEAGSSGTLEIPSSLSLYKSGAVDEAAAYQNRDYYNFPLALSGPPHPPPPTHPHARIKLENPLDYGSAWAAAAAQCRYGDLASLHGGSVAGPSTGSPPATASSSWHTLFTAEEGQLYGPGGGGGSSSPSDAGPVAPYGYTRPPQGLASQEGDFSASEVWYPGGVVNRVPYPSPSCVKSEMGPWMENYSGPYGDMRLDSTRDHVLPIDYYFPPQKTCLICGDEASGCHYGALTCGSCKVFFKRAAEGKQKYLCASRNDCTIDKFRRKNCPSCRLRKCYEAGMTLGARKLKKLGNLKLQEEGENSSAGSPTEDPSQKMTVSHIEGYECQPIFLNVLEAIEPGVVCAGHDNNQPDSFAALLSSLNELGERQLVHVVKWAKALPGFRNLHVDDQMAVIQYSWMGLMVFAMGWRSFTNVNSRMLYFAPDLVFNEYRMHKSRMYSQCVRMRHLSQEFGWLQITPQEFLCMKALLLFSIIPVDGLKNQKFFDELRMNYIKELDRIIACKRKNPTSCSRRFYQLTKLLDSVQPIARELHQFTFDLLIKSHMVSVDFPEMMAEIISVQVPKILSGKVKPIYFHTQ

[4] = target: Beta-1 adrenergic receptor (Homo sapiens, UniProt P08588); test: DRUGMATRIX: Adrenergic beta1 radioligand binding (ligand: [125I] Cyanopindolol); type: cell membranes, CHO-K1, Membrane; conditions: Not Active = under 50% inhibition at 10 µM
[5] = target: Beta-2 adrenergic receptor (Homo sapiens, UniProt P07550); test: DRUGMATRIX: Adrenergic beta2 radioligand binding (ligand: [3H] CGP-12177); type: cell membranes, CHO, Membrane; conditions: cho; Not Active = under 50% inhibition at 10 µM

Chain of Sigma non-opioid intracellular receptor 1 (Q99720 whole entry): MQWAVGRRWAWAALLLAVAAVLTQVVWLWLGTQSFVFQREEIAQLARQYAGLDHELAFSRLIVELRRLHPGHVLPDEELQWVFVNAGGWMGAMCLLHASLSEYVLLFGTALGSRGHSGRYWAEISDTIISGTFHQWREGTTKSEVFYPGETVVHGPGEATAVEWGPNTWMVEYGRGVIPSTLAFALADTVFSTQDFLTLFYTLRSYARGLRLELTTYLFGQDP
Chain of Beta-1 adrenergic receptor (P08588 whole entry): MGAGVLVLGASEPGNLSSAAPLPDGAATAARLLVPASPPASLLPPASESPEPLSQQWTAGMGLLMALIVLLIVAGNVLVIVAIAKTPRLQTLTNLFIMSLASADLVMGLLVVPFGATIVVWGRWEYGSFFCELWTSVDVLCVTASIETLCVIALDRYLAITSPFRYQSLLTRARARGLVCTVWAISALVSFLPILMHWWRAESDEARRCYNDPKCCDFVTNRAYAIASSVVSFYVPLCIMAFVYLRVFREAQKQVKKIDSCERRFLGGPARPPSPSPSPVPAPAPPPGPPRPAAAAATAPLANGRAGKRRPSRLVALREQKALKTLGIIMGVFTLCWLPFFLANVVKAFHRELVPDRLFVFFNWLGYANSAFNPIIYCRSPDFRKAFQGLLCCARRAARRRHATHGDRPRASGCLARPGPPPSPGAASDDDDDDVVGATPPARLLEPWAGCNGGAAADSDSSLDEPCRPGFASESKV
Chain of Tyrosine-protein kinase Lck (P06239 whole entry): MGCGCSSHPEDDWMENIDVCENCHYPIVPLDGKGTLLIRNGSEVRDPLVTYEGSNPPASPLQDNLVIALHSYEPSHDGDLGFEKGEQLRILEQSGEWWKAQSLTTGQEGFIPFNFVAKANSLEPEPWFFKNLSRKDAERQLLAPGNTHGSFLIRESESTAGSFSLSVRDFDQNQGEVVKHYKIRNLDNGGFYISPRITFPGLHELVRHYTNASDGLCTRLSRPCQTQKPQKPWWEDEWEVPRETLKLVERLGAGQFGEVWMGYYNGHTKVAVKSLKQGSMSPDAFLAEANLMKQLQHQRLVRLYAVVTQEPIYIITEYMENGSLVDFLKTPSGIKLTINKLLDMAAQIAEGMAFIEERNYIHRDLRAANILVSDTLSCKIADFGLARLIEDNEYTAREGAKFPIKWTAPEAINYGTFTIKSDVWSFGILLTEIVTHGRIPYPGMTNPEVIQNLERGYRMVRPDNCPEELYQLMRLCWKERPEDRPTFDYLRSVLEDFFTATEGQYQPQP

Row | Compound | IC50 ([1]; jurkat) | IC50 ([2]; insect cells) | IC50 [3] | IC50 ([4]; cho-k1) | IC50 [5] | further results
1 | CN(Cc1cnc2nc(N)nc(N)c2n1)c1ccc(C(=O)N[C@@H](CCC(=O)O)C(=O)O)cc1 [METHOTREXATE] | Not Active | Not Active | Not Active | Not Active | Not Active | 
2 | C[C@]12CCC(=O)C=C1CC[C@@H]1[C@@H]2[C@@H](O)C[C@@]2(C)[C@H]1CC[C@]2(O)C(=O)CO [HYDROCORTISONE] | Not Active | Not Active | Not Active | Not Active | Not Active | 
3 | C[C@@H]1CC[C@H]2[C@@H](C)C(=O)O[C@@H]3O[C@@]4(C)CC[C@@H]1[C@]32OO4 [ARTEMISININ] | Not Active | Not Active | Not Active | Not Active | Not Active | 
4 | Cc1cn[nH]c1 [FOMEPIZOLE] | Not Active | Not Active | Not Active | Not Active | Not Active | 
5 | COc1ccccc1OCC(O)CO (centres undefined) [GUAIFENESIN] | Not Active | Not Active | Not Active | Not Active | Not Active | 
6 | O=C(/C=C/c1ccc(O)c(O)c1)OCCc1ccccc1 [CAFFEIC ACID PHENETHYL ESTER] | Not Active |  | Not Active | Not Active | Not Active | IC50 ([2]; read-out: IC50): 2890 nM
7 | OCCO [ETHYLENE GLYCOL] | Not Active | Not Active | Not Active | Not Active | Not Active | 
8 | C[C@H]([C@](O)(Cn1cncn1)c1ccc(F)cc1F)S(C)(=O)=O [GENACONAZOLE] | Not Active | Not Active | Not Active | Not Active | Not Active | 
9 | CC(C)(C)c1ccc(S(=O)(=O)/C=C/C#N)cc1 [BAY-11-7085] | Not Active | Not Active | Not Active | Not Active | Not Active | 
10 | POLYVINYL ALCOHOL | Not Active | Not Active | Not Active | Not Active | Not Active | Ki ([1]; jurkat): Not Active; Ki ([2]; insect cells): Not Active; Ki [3]: Not Active; Ki ([4]; cho-k1): Not Active; Ki [5]: Not Active
11 | CC(=O)OCC(CCn1cnc2cnc(N)nc21)COC(C)=O [FAMCICLOVIR] | Not Active | Not Active | Not Active | Not Active | Not Active | 
12 | O=C(c1ccccc1Cl)N1CCC(Cc2ccccc2)CC1 | Not Active | Not Active | Not Active | Not Active | Not Active | 
13 | Cc1c(F)c(N2CCNC(C)C2)cc2c1c(=O)c(C(=O)O)cn2C1CC1 (centres undefined) [GREPAFLOXACIN] | Not Active | Not Active |  | Not Active | Not Active | 
14 | CC(C(=O)O)c1ccc(-c2ccccc2)c(F)c1 (centres undefined) [FLURBIPROFEN] | Not Active | Not Active |  | Not Active | Not Active | 
15 | COC(=O)c1ccccc1O [METHYL SALICYLATE] | Not Active | Not Active |  | Not Active | Not Active | 
16 | O=C(O)c1cccnc1 [NIACIN] | Not Active | Not Active |  | Not Active | Not Active | 
17 | CC[C@H](C)C(=O)O[C@H]1C[C@@H](C)C=C2C=C[C@H](C)[C@H](CC[C@@H]3C[C@@H](O)CC(=O)O3)[C@H]21 [LOVASTATIN] | Not Active | Not Active |  | Not Active | Not Active | 
18 | COBALT(II) ACETYLACETONATE | Not Active | Not Active | Not Active | Not Active | Not Active | Ki ([1]; jurkat): Not Active; Ki ([2]; insect cells): Not Active; Ki [3]: Not Active; Ki ([4]; cho-k1): Not Active; Ki [5]: Not Active
19 | CN(C(=O)CCCOc1ccc2[nH]c(=O)ccc2c1)C1CCCCC1 [CILOSTAMIDE] | Not Active | Not Active |  | Not Active | Not Active | 

Row | Compound | IC50 ([1]; jurkat) | IC50 ([2]; insect cells) | IC50 [3] | IC50 ([4]; cho-k1) | IC50 [5] | further results
20 | INSULIN HUMAN | Not Active |  | Not Active | Not Active | Not Active | Ki ([1]; jurkat): Not Active; IC50 ([2]; insect cells, read-out: IC50): 18100 nM; Ki [3]: Not Active; Ki ([4]; cho-k1): Not Active; Ki [5]: Not Active
21 | CCOC(=O)[C@H](CCc1ccccc1)N[C@@H](C)C(=O)N1CCC[C@H]1C(=O)O | Not Active | Not Active |  | Not Active | Not Active | 
22 | O=C(O)c1cc(=O)c2c(OCC(O)COc3cccc4oc(C(=O)O)cc(=O)c34)cccc2o1 [CROMOLYN] | Not Active | Not Active |  | Not Active | Not Active | 
23 | Cc1cccc(Nc2cc(Cl)nc(SCC(=O)O)n2)c1C [PIRINIXIC ACID] | Not Active | Not Active | Not Active | Not Active | Not Active | 
24 | CC[C@H]1OC(=O)[C@H](C)[C@@H](O[C@H]2C[C@@](C)(OC)[C@@H](O)[C@H](C)O2)[C@H](C)[C@@H](O[C@@H]2O[C@H](C)C[C@H](N(C)C)[C@H]2O)[C@](C)(OC)C[C@@H](C)C(=O)[C@H](C)[C@@H](O)[C@]1(C)O [CLARITHROMYCIN] | Not Active | Not Active |  | Not Active | Not Active | 
25 | CCc1oc2ccccc2c1C(=O)c1cc(Br)c(O)c(Br)c1 [BENZBROMARONE] | Not Active | Not Active | Not Active | Not Active | Not Active | 
26 | CC[C@]1(O)CC[C@H]2[C@@H]3CCC4=CCCC[C@@H]4[C@H]3CC[C@@]21C | Not Active | Not Active |  | Not Active | Not Active | 
27 | CC(C)(Oc1ccc(C2CC2(Cl)Cl)cc1)C(=O)O (centres undefined) [CIPROFIBRATE] | Not Active | Not Active | Not Active | Not Active | Not Active | 
28 | CO[C@H]1[C@@H](O)[C@H](N)[C@@H](O[C@H]2O[C@H]([C@H](C)N)CC[C@H]2N)[C@H](O)[C@@H]1N(C)C(=O)CN [ASTROMICIN] | Not Active | Not Active |  | Not Active | Not Active | 
29 | Clc1cc2c(cc1Cl)Oc1cc(Cl)c(Cl)cc1O2 [2,3,7,8-TETRACHLORODIBENZO-P-DIOXIN] | Not Active | Not Active | Not Active | Not Active | Not Active | 
30 | CNC(=C[N+](=O)[O-])NCCSCc1csc(CN(C)C)n1 [NIZATIDINE] | Not Active | Not Active | Not Active | Not Active | Not Active | 
31 | N=C(N)N/N=C/c1c(Cl)cccc1Cl [GUANABENZ] | Not Active | Not Active | Not Active | Not Active | Not Active | 
32 | CC(C)C[C@H]1C(=O)N2CCC[C@H]2[C@]2(O)O[C@](NC(=O)[C@@H]3C=C4c5cccc6[nH]c(Br)c(c56)C[C@H]4N(C)C3)(C(C)C)C(=O)N12 [BROMOCRIPTINE] | Not Active | Not Active |  |  | Not Active | IC50 ([4]; read-out: IC50): 2400 nM; Ki ([4]; read-out: Ki): 1390 nM
33 | COc1ccc2cc(CCC(C)=O)ccc2c1 [NABUMETONE] | Not Active | Not Active |  | Not Active | Not Active | 
34 | CC(C(=O)O)c1ccc(CC2CCCC2=O)cc1 (centres undefined) [LOXOPROFEN] | Not Active | Not Active |  | Not Active | Not Active | 
35 | CCCCCC[C@H]1C(=O)O[C@H](C)[C@H](NC(=O)c2cccc(NC=O)c2O)C(=O)O[C@@H](C)[C@@H]1OC(=O)CC(C)C [ANTIMYCIN A] | Not Active | Not Active | Not Active | Not Active | Not Active | 
36 | Cc1cnc(C(=O)NCCc2ccc(S(=O)(=O)NC(=O)NC3CCCCC3)cc2)cn1 [GLIPIZIDE] | Not Active | Not Active |  | Not Active | Not Active | 
37 | CC(=O)O[C@]1(C(C)=O)CC[C@H]2[C@@H]3C=C(Cl)C4=CC(=O)[C@@H]5C[C@@H]5[C@]4(C)[C@H]3CC[C@@]21C [CYPROTERONE ACETATE] | Not Active | Not Active |  | Not Active | Not Active | 
38 | CCN[C@@H](C)Cc1cccc(C(F)(F)F)c1 [DEXFENFLURAMINE] |  | Not Active |  | Not Active | Not Active | IC50 ([1]; read-out: IC50): 516 nM; Ki ([1]; read-out: Ki): 217 nM
